Test results: patent US20180339963A1, “ANTICONVULSANT CARBAMATE DERIVATIVES” (Yissum Research Development Company of the Hebrew …, priority 2017, published 2018)
Read-outs that look alike come from different tables or passages of the source. Marks after values point to notes of the source that are not given here.

How the values were obtained:
in vivo [1] = settings: Sprague-Dawley, rat
hCA II = target: T1, hCA II (Homo sapiens, UniProt P00918); test: Stopped flow CO2 hydrase assay, hCA II; format: biochemical; settings: mean from 3 assays, read-out: K1, hCA II
T1 construct: made in house
Method: (§1) An Applied Photophysics stopped-flow instrument has been used for assaying the CA catalysed CO2 hydration activity. Phenol red (at a concentration of 0.2 mM) has been used as indicator, working at the absorbance maximum of 557 nm, with 20 mM Hepes (pH 7.5) as buffer, and 20 mM Na2SO4 (for maintaining constant the ionic strength), following the initial rates of the CA-catalyzed CO2 hydration reaction for a period of 10-100 s. The CO2 concentrations ranged from 1.7 to 17 mM for the determination of the kinetic parameters and inhibition constants. […] The uncatalyzed rates were determined in the same manner and subtracted from the total observed rates. Stock solutions of inhibitor (0.1 mM) were prepared in distilled-deionized water and dilutions up to 0.01 nM were done thereafter with the assay buffer. […] The inhibition constants were obtained by non-linear least-squares methods using PRISM 3 and the Cheng-Prusoff equation, as reported earlier and represent the mean from at least three different determinations. All CA isofoms were recombinant ones obtained in-house.

[2] = test system: maximal electroshock seizure (MES); test: Maximal electroshock seizure (MES) test in rats; settings: for ED50: Rattus norvegicus; for MES-ED50: rats, p.o.
[3] = test system: pentylenetetrazol-induced seizure (scMet); test: Subcutaneous metrazol seizure test (scMet) in mice; settings: Mus musculus, ip, read-out: scMet-ED50
[4] = test system: pentylenetetrazol-induced seizure (scMet); test: Subcutaneous metrazol seizure test (scMet) in rats; settings: for ED50: Rattus norvegicus, po, read-out: scMet ED50; for scMet ED50: rats, p.o.
[5] = test system: maximal electroshock seizure (MES); test: Maximal electroshock seizure (MES) test in mice; settings: Mus musculus, ip; for responders at 30 mg/kg / responders at 100 mg/kg / responders at 300 mg/kg: read-out: MES, number of mice protected/number of mice tested; for ED50: read-out: MES-ED50, mice, i.p.
hCA I = target: T2, hCA I (Homo sapiens, UniProt P00915); test: Stopped flow CO2 hydrase assay, hCA I; format: biochemical; settings: mean from 3 assays, read-out: K1, hCAI
T2 construct: made in house
T2 sequence (P00915 whole entry): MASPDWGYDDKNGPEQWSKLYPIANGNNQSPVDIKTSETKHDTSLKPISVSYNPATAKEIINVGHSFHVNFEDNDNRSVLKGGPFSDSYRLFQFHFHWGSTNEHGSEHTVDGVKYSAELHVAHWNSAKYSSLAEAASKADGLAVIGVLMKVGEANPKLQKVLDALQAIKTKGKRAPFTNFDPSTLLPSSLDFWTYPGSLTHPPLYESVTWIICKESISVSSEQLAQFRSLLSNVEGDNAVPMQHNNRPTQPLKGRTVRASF
Method: as §1

hCA VII = target: T3, hCA VII (Homo sapiens, UniProt P43166); test: Stopped flow CO2 hydrase assay, hCA VII; format: biochemical; settings: mean from 3 assays, read-out: K1, hCA VII
T3 construct: made in house
T3 sequence (P43166 whole entry): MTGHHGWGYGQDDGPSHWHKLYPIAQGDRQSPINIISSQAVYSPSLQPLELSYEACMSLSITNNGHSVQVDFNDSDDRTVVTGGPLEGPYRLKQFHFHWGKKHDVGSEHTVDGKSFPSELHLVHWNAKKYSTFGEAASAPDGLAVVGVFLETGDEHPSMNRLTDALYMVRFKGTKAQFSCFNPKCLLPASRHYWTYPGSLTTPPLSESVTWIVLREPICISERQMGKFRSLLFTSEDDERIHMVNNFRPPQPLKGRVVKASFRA
Method: as §1

hCA IV = target: T4, hCA IV (Homo sapiens, UniProt P22748); test: Stopped flow CO2 hydrase assay, hCA IV; format: biochemical; settings: mean from 3 assays
T4 construct: made in house
T4 sequence (P22748 19-284): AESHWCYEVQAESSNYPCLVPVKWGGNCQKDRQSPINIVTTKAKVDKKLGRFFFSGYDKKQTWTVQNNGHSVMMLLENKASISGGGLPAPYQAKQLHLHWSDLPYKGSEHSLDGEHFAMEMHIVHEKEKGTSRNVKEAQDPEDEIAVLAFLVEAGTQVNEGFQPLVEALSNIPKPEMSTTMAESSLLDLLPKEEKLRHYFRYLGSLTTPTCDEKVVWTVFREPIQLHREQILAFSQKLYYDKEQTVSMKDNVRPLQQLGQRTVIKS
Method: as §1

6 Hz psychomotor seizure = 6 Hz psychomotor seizure test in mice; settings: Mus musculus, ip; for responders at 30 mg/kg / responders at 100 mg/kg / responders at 300 mg/kg: read-out: 6 Hz, number of mice protected/number of mice tested
SWV mice = test: Teratogenicity in the SWV mouse model; format: in vivo; settings: for No. of fetuses with NTDs / No. of implants / No. of live fetuses / No. of resorptions / Fetal weight mean ± SD: day 8.5 of gestation; for Fetal weight mean ± SD: in g (unit assumed); for No. of live fetuses, figure in parentheses / No. of resorptions, figure in parentheses: share of implants; for No. of fetuses with NTDs, figure in parentheses: share of live fetuses
Method: The teratogenic properties of the newly designed compounds (1-10) were evaluated in the highly inbred SWV mice strain known for its high susceptibility to VPA-induced neural tube defects (NTDs). Two month old nulligravid females, were mated overnight with males and examined for the presence of vaginal plugs the following morning, and the onset of gestation was considered to be 10 p.m. of the previous night, the midpoint of the dark cycle. At day 8.5 of gestation, each dam received a single i.p. injection of the test compounds in an equimolar dose of 0.9 or 1.8 mmol/kg and the control dams were injected with vehicle (25% water solution of Cremophore EL, Fluka Biochemica Germany). The volume of injection was 10 μL/g of body weight. […] At gestation day […], the dams were euthanized by carbon dioxide asphyxiation followed by cervical dislocation. After the opening the uterus, the location of all viable fetuses and resorption sites were recorded, and the fetuses were examined for the presence of exencephaly or other gross congenital abnormalities. The teratogenicity data (implantations, resorptions and NTDs) were evaluated for significant differences between the control and treated groups by analyzing the contingency table with Fisher's exact test. Statistical analysis was conducted using GraphPad InStat (version 3.06; GraphPad Software, San Diego, Calif., USA), and the results of all tests were considered to be statistically significant when the p-value was less than 0.05

in vivo [6] = settings: male, CF no. 1 albino, mouse, ip
mice = test: Neurotoxicity (minimal motor impairment, rotarod) in mice; settings: mice i.p.
corneal kindled mouse = test: Corneal kindled mouse (CKM) model; format: in vivo; settings: ip, mice
[7] = po, read-out: MES-ED50, rats, p.o.
[8] = read-out: 6 Hz-ED50, mice, i.p., 32 mA

Structure (SMILES): CCC(C)C(C)OC(=O)Nc1ccc(S(N)(=O)=O)cc1 (stereo not shown) [Compound 9, 3-methylpentan-2-yl (4-sulfamoylphenyl)carbamate]
- TD50 (in vivo [1]; male, po): > 500 mg/kg
- Ki (hCA II): 5.4 nM
- ED50 [2, 7]: 23 mg/kg
- MES-ED50 [2]: 28 mg/kg
- ED50 [3]: 369 mg/kg
- ED50 [4]: > 250 mg/kg
- scMet ED50 [4]: inactive
- responders at 30 mg/kg ([5]; 0.5 h): 75%
- responders at 100 mg/kg ([5]; 0.5 h): 75%
- responders at 300 mg/kg ([5]; 0.5 h): 100%
- responders at 30 mg/kg ([5]; 2 h): 0%
- responders at 100 mg/kg ([5]; 2 h): 100%
- responders at 300 mg/kg ([5]; 2 h): 100%
- ED50 [5]: 31 mg/kg
- Ki (hCA I): 72.9 nM
- melting point: 179 to 180 °C
- Ki (hCA VII): 35.5 nM
- K1, hCA IV (hCA IV): medium potency inhibitors
- Ki (hCA IV; read-out: K1, hCA IV): 183 nM
- responders at 30 mg/kg (6 Hz psychomotor seizure; 0.5 h): 50%
- responders at 100 mg/kg (6 Hz psychomotor seizure; 0.5 h): 50%
- responders at 300 mg/kg (6 Hz psychomotor seizure; 0.5 h): 100%
- responders at 30 mg/kg (6 Hz psychomotor seizure; 2 h): 0%
- responders at 100 mg/kg (6 Hz psychomotor seizure; 2 h): 0%
- responders at 300 mg/kg (6 Hz psychomotor seizure; 2 h): 25%
- ED50 (6 Hz psychomotor seizure; [8]): 53 mg/kg
- induction of neural tube defects relative to anticonvulsant effective dose (in words) (SWV mice): induced neural tube defects only at doses markedly exceeding their effective dose
- No. of fetuses with NTDs (SWV mice; single i.p. 0.9 mmol/kg): 3
- No. of implants (SWV mice; single i.p. 0.9 mmol/kg): 126
- No. of live fetuses (SWV mice; single i.p. 0.9 mmol/kg): 109
- No. of resorptions (SWV mice; single i.p. 0.9 mmol/kg): 17
- Fetal weight mean ± SD (SWV mice; single i.p. 0.9 mmol/kg): 0.90 ± 0.07
- No. of live fetuses, figure in parentheses (SWV mice; single i.p. 0.9 mmol/kg): 86.5%
- No. of resorptions, figure in parentheses (SWV mice; single i.p. 0.9 mmol/kg): 13.5%
- No. of fetuses with NTDs, figure in parentheses (SWV mice; single i.p. 0.9 mmol/kg): (2.8)
- No. of fetuses with NTDs (SWV mice; single i.p. 1.8 mmol/kg): 9
- No. of implants (SWV mice; single i.p. 1.8 mmol/kg): 107
- No. of live fetuses (SWV mice; single i.p. 1.8 mmol/kg): 49
- No. of resorptions (SWV mice; single i.p. 1.8 mmol/kg): 58
- Fetal weight mean ± SD (SWV mice; single i.p. 1.8 mmol/kg): 0.89 ± 0.08
- No. of live fetuses, figure in parentheses (SWV mice; single i.p. 1.8 mmol/kg): 45.8%
- No. of resorptions, figure in parentheses (SWV mice; single i.p. 1.8 mmol/kg): 54.2%
- No. of fetuses with NTDs, figure in parentheses (SWV mice; single i.p. 1.8 mmol/kg): (18.4)*
- TD50 (in vivo [6]): > 600 mg/kg
- Tox (motor impairment or sedation), number of animals affected/number of animals tested (mice; 30 mg/kg, 0.5 h): 0/8
- Tox (motor impairment or sedation), number of animals affected/number of animals tested (mice; 30 mg/kg, 2.0 h): 0/8
- Tox (motor impairment or sedation), number of animals affected/number of animals tested (mice; 100 mg/kg, 0.5 h): 0/8
- Tox (motor impairment or sedation), number of animals affected/number of animals tested (mice; 100 mg/kg, 2.0 h): 0/8
- Tox (motor impairment or sedation), number of animals affected/number of animals tested (mice; 300 mg/kg, 0.5 h): 0/8
- Tox (motor impairment or sedation), number of animals affected/number of animals tested (mice; 300 mg/kg, 2.0 h): 0/8

Structure (SMILES): CCC(C)CCOC(=O)Nc1ccc(S(N)(=O)=O)cc1 (stereo not shown) [Compound 10, 3-methylpentyl(4-sulfamoylphenyl)carbamate]
- TD50 (in vivo [1]; ip): > 250 mg/kg
- TD50 (in vivo [1]; male, po): > 500 mg/kg
- ED50 ([2]; ip, read-out: MES-ED50, rats, i.p.): 13 mg/kg
- ED50 [2, 7]: 28 mg/kg
- MES-ED50 [2]: 23 mg/kg
- ED50 [3]: 70 mg/kg
- ED50 [4]: > 250 mg/kg
- scMet ED50 [4]: inactive
- responders at 30 mg/kg ([5]; 0.5 h): 75%
- responders at 100 mg/kg ([5]; 0.5 h): 100%
- responders at 300 mg/kg ([5]; 0.5 h): 75%
- responders at 30 mg/kg ([5]; 2 h): 25%
- responders at 100 mg/kg ([5]; 2 h): 100%
- responders at 300 mg/kg ([5]; 2 h): 100%
- ED50 [5]: 14 mg/kg
- melting point: 168 to 169 °C
- Ki (hCA VII): 351 nM
- responders at 30 mg/kg (6 Hz psychomotor seizure; 0.5 h): 25%
- responders at 100 mg/kg (6 Hz psychomotor seizure; 0.5 h): 75%
- responders at 300 mg/kg (6 Hz psychomotor seizure; 0.5 h): 100%
- responders at 30 mg/kg (6 Hz psychomotor seizure; 2 h): 0%
- responders at 100 mg/kg (6 Hz psychomotor seizure; 2 h): 50%
- responders at 300 mg/kg (6 Hz psychomotor seizure; 2 h): 100%
- ED50 (6 Hz psychomotor seizure; read-out: 6 Hz (44 mA)-ED50, mice, i.p., 44 mA): 88 mg/kg
- ED50 (6 Hz psychomotor seizure; [8]): 80 mg/kg
- induction of neural tube defects relative to anticonvulsant effective dose (in words) (SWV mice): induced neural tube defects only at doses markedly exceeding their effective dose
- No. of fetuses with NTDs (SWV mice; single i.p. 0.9 mmol/kg): 9
- No. of implants (SWV mice; single i.p. 0.9 mmol/kg): 145
- No. of live fetuses (SWV mice; single i.p. 0.9 mmol/kg): 116
- No. of resorptions (SWV mice; single i.p. 0.9 mmol/kg): 29
- Fetal weight mean ± SD (SWV mice; single i.p. 0.9 mmol/kg): 0.88 ± 0.03
- No. of live fetuses, figure in parentheses (SWV mice; single i.p. 0.9 mmol/kg): 80%
- No. of resorptions, figure in parentheses (SWV mice; single i.p. 0.9 mmol/kg): 20%
- No. of fetuses with NTDs, figure in parentheses (SWV mice; single i.p. 0.9 mmol/kg): (7.8)*
- No. of fetuses with NTDs (SWV mice; single i.p. 1.8 mmol/kg): 17
- No. of implants (SWV mice; single i.p. 1.8 mmol/kg): 108
- No. of live fetuses (SWV mice; single i.p. 1.8 mmol/kg): 56
- No. of resorptions (SWV mice; single i.p. 1.8 mmol/kg): 52
- Fetal weight mean ± SD (SWV mice; single i.p. 1.8 mmol/kg): 0.87 ± 0.08
- No. of live fetuses, figure in parentheses (SWV mice; single i.p. 1.8 mmol/kg): 51.9%
- No. of resorptions, figure in parentheses (SWV mice; single i.p. 1.8 mmol/kg): 48.2%
- No. of fetuses with NTDs, figure in parentheses (SWV mice; single i.p. 1.8 mmol/kg): (30.4)*
- TD50 (in vivo [6]): 698 mg/kg
- ED50 (corneal kindled mouse): 59 mg/kg
- Tox (motor impairment or sedation), number of animals affected/number of animals tested (mice; 30 mg/kg, 0.5 h): 1/8
- Tox (motor impairment or sedation), number of animals affected/number of animals tested (mice; 30 mg/kg, 2.0 h): 0/8
- Tox (motor impairment or sedation), number of animals affected/number of animals tested (mice; 100 mg/kg, 0.5 h): 0/8
- Tox (motor impairment or sedation), number of animals affected/number of animals tested (mice; 100 mg/kg, 2.0 h): 0/8
- Tox (motor impairment or sedation), number of animals affected/number of animals tested (mice; 300 mg/kg, 0.5 h): 1/8
- Tox (motor impairment or sedation), number of animals affected/number of animals tested (mice; 300 mg/kg, 2.0 h): 0/8
